Where “and” joins values, the source holds several entries; their conditions need not be identical. Equal values may be shown once. Starred links: 1 amine or outer side, 2 acyl side, 3 side chain; linkers in the order of their positions; H or OH if unused. Positions of bridges follow the written chain, without caps; N, C: chain ends. Non-standard residues stand in square brackets, D forms with d. Residues, ends and D or L forms follow the SMILES beside them. Chains are numbered I, II in the order given. No end group written: not given here. Actinocin(9to1) = Cc1c2oc3c(C)ccc(C(=O)[*:1])c3nc-2c(C(=O)[*:2])c(N)c1=O; NMeV = CN[C@H](C(=O)O)C(C)C; Sar = CNCC(=O)O
Columns and labels:
C. elegans [1] = assay: Salt avoidance learning (taste associative learning, 6 h conditioning with NaCl without food); assay type: in vivo; conditions: wild-type, blocker in conditioning plates, cycloheximide 300 μg/mL, actinomycin D 50 μg/mL, 100 mM NaCl without food
Description: We next explored the behavior of sprr-2 mutants in a second established type of gustatory associative learning that depends on food availability and external salt concentration, generally referred to as taste associative learning. […] In contrast, they are averted by NaCl concentrations at which they were starved, a behavior that is called salt avoidance learning (Fig 5A, see Methods). To test taste associative learning of sprr-2 mutants, we fed or starved animals, respectively, for six hours on conditioning plates with 25 mM NaCl (low salt) or 100 mM NaCl (high salt). […] This salt avoidance learning defect could be rescued by reintroducing wild-type copies of sprr-2 under control of its endogenous promoter (Fig 5C). […]
(A) Overview of taste associative learning assays. […] The CI is calculated from the number of worms that migrated toward the lower and upper parts of the gradient. […]
Worms were washed off the cultivation plates with chemotaxis buffer (25 mM KH2PO4/K2HPO4 pH 6.6, 1 mM MgSO4, 1 mM CaCl2, 50 mM NaCl) and transferred to unseeded (salt avoidance learning) or seeded NGM conditioning plates with 100 mM NaCl. […] 30 to 150 worms were placed at the origin and allowed to move freely for 45 minutes after which the CI was calculated as N(higher)—N(lower) / N(all)—N(origin) where N(higher) or N(lower) is the number of animals within a 2-cm radius from the centre of the blocks. […]

C. elegans [2] = assay: Taste associative learning, 6 h conditioning with NaCl in the presence of food; assay type: in vivo; conditions: for CI: food (+): 6 hours conditioning on NGM plates with 100 mM NaCl in the presence of bacterial food, with the drug, gradient chemotaxis assay, each row is one single assay (replicate), Figure S5A; for learning behavior after conditioning with 100 mM NaCl in the presence of food: wild-type, blocker in conditioning plates, cycloheximide 300 μg/mL, actinomycin D 50 μg/mL, n ≥ 8
Method: (A) Overview of taste associative learning assays. Synchronized young adult C. elegans are conditioned for six hours on NaCl-containing plates with or without bacterial food. Salt chemotaxis behavior of worms is then tested on NaCl concentration gradients. The CI is calculated from the number of worms that migrated toward the lower and upper parts of the gradient. Worms chemotax to the salt concentrations at which they were fed, but avoid salt concentrations at which they were starved. […] (C) Expression of sprr-2 under its promoter sequence [sprr-2p::sprr-2] rescues the salt avoidance learning defect of sprr-2 mutants. (D) Expression of mip-1 under control of its endogenous promoter sequence [mip-1p::mip-1] rescues the salt avoidance learning defect of mip-1 mutants. (E) A mip-1; sprr-2 double mutant has no additive learning defect. (F) Blocking translation (cycloheximide) or transcription (actinomycin D) during conditioning impairs salt avoidance learning in wild-type animals. (G) Salt avoidance learning of mutants for transcription factors and regulators linked to learning and memory. […] For (B-H), boxplots indicate 25th (lower boundary), 50th (line), and 75th (upper boundary) percentiles. Whiskers show minimum and maximum values. Individual CIs, blue dots. Outliers, black dots. Statistical comparisons by one-way ANOVA and Tukey post-hoc test (n ≥ 6). *p<0.05; **p<0.005; ***p<0.001; n.s., not significant.
Worms were washed off the cultivation plates with chemotaxis buffer (25 mM KH2PO4/K2HPO4 pH 6.6, 1 mM MgSO4, 1 mM CaCl2, 50 mM NaCl) and transferred to unseeded (salt avoidance learning) or seeded NGM conditioning plates with 100 mM NaCl. After 6 hours, animals were washed off and rinsed once with chemotaxis buffer before testing chemotaxis towards NaCl on salt concentration gradients. Salt concentration gradients consisted of a thin layer of 50 mM NaCl 2% agar solution in chemotaxis buffer (background agar, 10 mL was poured into 8.5 cm diameter plates). Additionally, 2% agar in chemotaxis buffer solutions supplemented without 0 mM (lower side) or with 150 mM NaCl (higher side) were prepared by pouring 10 mL agar solution into 35 mm diameter plates. Cylindrical blocks with the diameter of a 15 mL falcon tube were excised from either solution and applied on the background agar 3 cm off centre in opposite directions. Salt concentration gradients were subsequently placed at 20°C for 18 hours before removing the agar chunks prior to use. 30 to 150 worms were placed at the origin and allowed to move freely for 45 minutes after which the CI was calculated as N(higher)—N(lower) / N(all)—N(origin) where N(higher) or N(lower) is the number of animals within a 2-cm radius from the centre of the blocks. Animals within a 1-cm radius from the origin were excluded from the assay. […]

SPRR-2 = target: T1, SPRR-2 (Caenorhabditis elegans, UniProt Q93704); assay: Ca2+ luminescence (aequorin) GPCR activation assay, CHO cells expressing SPRR-2; assay type: cell-based, C. elegans; conditions: CHO cells expressing SPRR-2, Gα16 and aequorin; 0.1 nM to 100 μM; n ≥ 4; read-out: EC50 values (95% CI) for activation of SPRR-2
T1 construct: host or cells: CHO-WTA11 cells (CHO stably expressing aequorin and Galpha16), transiently transfected with sprr-2/pcDNA3.1
T1 sequence (Q93704 1-451): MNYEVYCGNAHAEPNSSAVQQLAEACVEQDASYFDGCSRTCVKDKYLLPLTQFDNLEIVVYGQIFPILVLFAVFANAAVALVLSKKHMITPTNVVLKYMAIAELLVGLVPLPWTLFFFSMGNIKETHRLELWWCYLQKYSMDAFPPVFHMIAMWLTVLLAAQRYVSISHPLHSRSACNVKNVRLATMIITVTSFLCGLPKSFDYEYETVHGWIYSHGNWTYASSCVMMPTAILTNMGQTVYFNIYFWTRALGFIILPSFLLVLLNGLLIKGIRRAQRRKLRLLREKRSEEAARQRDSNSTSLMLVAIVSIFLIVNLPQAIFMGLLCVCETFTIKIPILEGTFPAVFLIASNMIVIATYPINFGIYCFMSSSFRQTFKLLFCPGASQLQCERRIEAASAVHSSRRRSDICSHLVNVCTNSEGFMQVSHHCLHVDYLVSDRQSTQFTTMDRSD
Description: Fig 2 MIP-1 neuropeptides activate the MIP receptor ortholog SPRR-2. (A) Ca^2+ luminescence assay for measuring GPCR activation. SPRR-2 is expressed in CHO cells that stably co-express the promiscuous Gα16 protein, which couples the receptor’s activation to the Ca^2+ pathway. Intracellular Ca^2+ levels are monitored by the luminescent Ca^2+ indicator aequorin. (B) Domain structure of the C. elegans NLP-38 peptide precursor, henceforward named MIP-1. Gene models predict that the mip-1 gene encodes two protein isoforms (Wormbase WS261), MIP-1A and MIP-1B, which yield five putative MIP-1 peptides. Predicted proprotein convertase sites are indicated in red. Residues belonging to the W-X5-8-Wamide motif, typical of protostomian MIPs, are indicated in brown. (C) MIP-1 peptides dose-dependently activate SPRR-2. Ca^2+responses of CHO cells expressing SPRR-2 are shown relative (%) to the highest value (100% activation) after normalization to the total Ca^2+ response. […] Error bars show SEM (n ≥ 4).
The C. elegans ortholog SPRR-2 of the insect MIP receptor is an orphan GPCR, meaning that its ligand(s) is unknown. To identify its ligand(s), we used a calcium (Ca^2+)-based reporter assay for GPCR activation wherein SPRR-2 is expressed in Chinese Hamster Ovary (CHO) cells (Fig 2A). We challenged these receptor-expressing cells with a synthetic library of ~350 C. elegans neuropeptides. […] These peptides (NLP-38-1 to 5) all have a C-terminal glycine residue (G) indicative of post-translational modification into an amide (-NH2) group in the mature peptides. In addition, these peptides display the C-terminal sequence W-X5-8-Wamide (Fig 2B), which is typical for MIP neuropeptides in other protostomian species. Because of its relationship to protostomian MIP neuropeptide precursors, we refer to the NLP-38 precursor from here onwards as "MIP-1".
The GPCR activation assay was performed as previously described. Briefly, CHO cells stably expressing the luminescent Ca^2+ indicator aequorin and the promiscuous Gα16 protein (CHO-WTA11 cells, PerkinElmer) were transiently transfected with sprr-2/pcDNA3.1, sprr-1/pcDNA3.1, sprr-3/pcDNA3.1, or empty pcDNA3.1 vector. […] After loading, the transfected cells were added at a density of 25,000 cells/well, and luminescence was measured for 30 s at a wavelength of 469 nm. After 30 s, 0.1% triton X-100 (Merck) was added to lyse the cells, resulting in a maximal Ca^2+ response that was measured for 10 s. […]
All behavioral experiments were performed at least in duplicate on at least two independent days. Total size number is indicated in figure legends by N. Statistical Significance was determined when p < 0.05 as indicated in the figure legends. […]

| EC50 (SPRR-2) [nM] | Compound | avoidance of high salt concentrations experienced during starvation (salt avoidance learning) (C. elegans [1]) | CI (C. elegans [2]) | learning behavior after conditioning with 100 mM NaCl in the presence of food (C. elegans [2]) |
| --- | --- | --- | --- | --- |
| 16.1 | SPAQWQRANGLW-NH2 [MIP-1-3] |  |  |  |
| 7.5 | VLGWNKAHGLW-NH2 [MIP-1-1] |  |  |  |

Continued, compound first:

| Compound | EC50 (SPRR-2) [nM] | avoidance of high salt concentrations experienced during starvation (salt avoidance learning) (C. elegans [1]) | CI (C. elegans [2]) | learning behavior after conditioning with 100 mM NaCl in the presence of food (C. elegans [2]) |
| --- | --- | --- | --- | --- |
| Cc1c2oc3c(C)ccc(C(=O)N[C@@H]4C(=O)N[C@H](C(C)C)C(=O)N5CCC[C@H]5C(=O)N(C)CC(=O)N(C)[C@@H](C(C)C)C(=O)O[C@@H]4C)c3nc-2c(C(=O)N[C@@H]2C(=O)N[C@H](C(C)C)C(=O)N3CCC[C@H]3C(=O)N(C)CC(=O)N(C)[C@@H](C(C)C)C(=O)O[C@@H]2C)c(N)c1=O [actinomycin D] (I: T[dV]P[Sar][NMeV] / II: T[dV]P[Sar][NMeV]; ester I:1-I:C, II:1-II:C; linker I:N-II:N via Actinocin(9to1)) |  | significantly weakened | 0.5595 and 0.6629 and 0.7488 and 0.5052 and 0.5581 and 0.5185 | does not impair |
| C[C@@H]1C[C@@H]([C@H](O)CC2CC(=O)NC(=O)C2)C(=O)[C@@H](C)C1 [cycloheximide] |  | significantly weakened | 0.19 and 0.26 and 0.65 and 0.48 and 0.38 and 0.54 and 0.7415 and 0.7427 | does not impair |
| ASDDRVLGWNKAHGLW-NH2 [MIP-1-4] | 8.32 |  |  |  |
| TPQNWNKLNSLW-NH2 [MIP-1-2] | 14.2 |  |  |  |

— article PMC6380545, “Myoinhibitory peptide signaling modulates aversive gustatory learning in Caenorhabditis elegans” (PLoS Genetics, 2019)
